Data published in paper PMC11089561, “Structural Investigations of Phthalazinone Derivatives as Allosteric Inhibitors of Human DNA Methyltransferase 3A” (ACS Medicinal Chemistry Letters, 2024).

Tests used:
[1] = tested on: acute myeloid leukemia cell; parameters: method as in PMID 35866897; conditions: cited from earlier work
[2] = molecular target: T1, DNMT3A_CD (catalytic domain of DNMT3A) (Homo sapiens, UniProt Q9Y6K1); test: In vitro methylation assay, IC50 determination ([3H]-SAM, poly dI-dC); type: biochemical; conditions: 150 nM DNMT3A, 10 uM SAM, 10 uM poly dI-dC; 1 hour preincubation; Hill slope constrained to -2
T1 construct: The catalytic domain of DNMT3A (residues 634 -912) were used for all experiments; made in house; host or cells: E. coli NiCo21 (DE3) (NEB)
T1 sequence (Q9Y6K1 634-912): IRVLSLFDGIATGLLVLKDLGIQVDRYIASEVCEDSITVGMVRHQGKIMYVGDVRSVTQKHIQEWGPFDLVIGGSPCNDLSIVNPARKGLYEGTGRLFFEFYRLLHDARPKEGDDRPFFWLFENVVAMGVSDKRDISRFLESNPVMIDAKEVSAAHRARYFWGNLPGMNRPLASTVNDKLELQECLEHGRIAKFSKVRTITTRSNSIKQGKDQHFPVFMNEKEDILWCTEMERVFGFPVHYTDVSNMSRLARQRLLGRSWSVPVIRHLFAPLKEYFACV
Method: Expression and Purification of DNMT3A_CD
The catalytic domain of DNMT3A (residues 634 -912) were used for all experiments […]
DNMT3A_CD was expressed in NiCo21 (DE3) cells (NEB) using a codon optimized plasmid pET28a-hDNMT3A_CD (∆1-611). Cell cultures were grown in LB medium at 37 °C to an OD600 = 0.8. Cultures were cooled to 25 °C, then expression was induced by the addition of 1 mM IPTG (Gold Biotechnology). Cells were harvested by centrifugation after 5 hours and flash frozen in liquid nitrogen for storage at -80 °C.
Cells were resuspended in lysis buffer containing 50 mM K2HPO4/KH2PO4, 500 mM NaCl, 50 mM imidazole, 10% glycerol [v/v], 1 mM EDTA and 1 mM PMSF at pH 7.8.
Sonication was used for lysis and the supernatant was collected after centrifugation at 18,000 x g for 1 hour. Lysates were applied to an ÄKTA start FPLC system (GE healthcare) and loaded onto a 1 mL HisTrap Excel column (Cytiva). The column was washed with 50 mL of lysis […]
(§1) buffer and eluted with an identical buffer containing a higher imidazole concentration of 500 mM. Eluted protein was desalted with a 5 mL HiTrap Desalting column (Cytiva) and flash frozen in liquid nitrogen for storage at -80 °C. DNMT3A_CD concentration was determined using UV-vis with an extinction coefficient determined by protparam of 38,180 M-1 cm-1 to represent the monomeric state.
(§2) In Vitro Methylation Assays
(§3) Methylation assays were used to determine nanomolar amounts of methylated DNA product. Reactions were carried out in 50 mM K2HPO4/KH2PO4 at pH 7.8, 1 mM EDTA, 1 mM DTT, 0.2 mg/mL BSA, 20 mM NaCl, 150 nM DNMT3A_CD, 10 uM poly dI-dC (Sigma Aldrich), and 10 uM SAM (Sigma Aldrich) unless otherwise stated. The SAM cofactor was diluted with [3H]-SAM from PerkinElmer in 10 mM H2SO4. All inhibitors were dissolved and diluted in DMSO prior to addition to methylation reactions. Reactions with and without […]
All reactions containing inhibitors were preincubated with DNMT3A and inhibitor for 1 hour. Reactions were activated with poly dI-dC to a final volume of 20 uL, then incubated at 37 °C for 1 hour. Reaction aliquots were spotted on Hybond-N+ membranes (GE healthcare), then washed with 50 mM K2HPO4/KH2PO4 at pH 7.8 and ethanol. Membranes were dried and counted using a Hidex LS 300 scintillation counter. […]
Determination of IC50 Value
Percent activity of methylation assays was determined by comparing activities of assays with inhibitor to assays without inhibitor. Sigmoidal dose-response curves of percent activity vs compound concentration were fitted in Prism 10.
All assays were performed in triplicate, with additional repetitions added as necessary. […]
14). Reactions consisted of 150 nM DNMT3A, 10 uM SAM, and 10 uM poly dI -dC. The data

[3] = molecular target: T1, DNMT3A_CD (catalytic domain of DNMT3A); test: Kinetics studies: methylation assays with varied SAM or poly dI-dC, fit to inhibition models; type: biochemical; conditions: for α coefficient from mixed-type inhibition model, varied SAM: SAM varied 0.15-10 uM, poly dI-dC 10 uM; for α coefficient from mixed-type inhibition model, varied SAM / α coefficient from mixed-type inhibition model, varied DNA: α < 1 = preference for enzyme-substrate complex; for α coefficient from mixed-type inhibition model, varied DNA: poly dI-dC varied 0.15-10 uM, SAM 10 uM; for Best fit inhibition model: with DNA and SAM varied, R2 comparison and F-test, p-value < 0.0001
Text: Using methylation assays with and without inhibitor and varied concentrations of DNA or SAM, we generated nonlinear Michaelis–Menten curves with corresponding double-reciprocal plots (Figure S2) and fit them to classical inhibition models. […] By analyzing double-reciprocal plots, this mechanistic model was confirmed because the changes in y-intercept and slope are inconsistent with competitive and uncompetitive forms of inhibition, respectively. […] Furthermore, the selected analogs also bind more tightly to the enzyme–substrate complex than to the free enzyme with both DNA and SAM (Table S2). This preference could be beneficial since DNMT3A bound to DNA is likely the dominant species in a cellular context. […]
as §1, §2, §3
All reactions containing inhibitors were preincubated with DNMT3A and inhibitor for 1 hour. Reactions were activated with poly dI-dC to a final volume of 20 uL, then incubated at 37 °C for 1 hour. Reaction aliquots were spotted on Hybond-N+ membranes (GE healthcare), then washed with 50 mM K2HPO4/KH2PO4 at pH 7.8 and ethanol. Membranes were dried and counted using a Hidex LS 300 scintillation counter.
In vitro methylation assays were performed as described above using two concentrations of inhibitor (0 uM and ~IC50) and varied concentrations of substrate SAM or poly dI-dC while the other substrate is held at a saturating concentration of 10 uM. For the variation of SAM, concentrations of 0.15, 0.25, 0.5, 1, 3 and 10 uM were used, while for the variation of poly dI-dC concentrations of 0.15, 0.25, 0.5, 1, 2.5, and 10 uM were used. Data was fitted globally with Prism 10 and best-fit inhibition models were determined using an F-test (p < 0.0001).
Lineweaver-Burke plots were generated and fit to a linear regression model. Data represent the mean and standard deviation of three independent reactions. […]
Figure S2: Double reciprocal plots for 1a (A, B), 3 (C, D), 4 (E, F), 5 (G, H), and 10 (I, J) with DNA and SAM. The data points represent the mean and standard deviation of three independent reactions. Reactions were done at initial velocity conditions using 150 nM DNMT3A, and varied concentrations of one substrate (0.15 –10 uM) while the other was saturated at 10 uM. Linear fits […]
competitive inhibition and uncompetitive inhibition respectively.
(1 picture or pasted object on this page, not shown here) […]
coefficient is a measure of the inhibitor’s preference for E and ES kinetic species.
Table S1: Determination of best fit inhibition models for 1a, 3, 4, 5, and 10 by R2 comparison […]
Most of the inhibitors have α < 1, where the inhibitor prefers the enzyme-substrate complex. […]

DNMT3A = molecular target: DNMT3A; parameters: method as in PMID 33705897; conditions: with SAM; read-out: Ki with S-adenosyl methionine (SAM, AdoMet); cited from earlier work
[4] = parameters: method as in PMID 26935942; conditions: versus FDA-approved inhibitors (azacytidine and decitabine); cited from earlier work

Row | Structure (SMILES) | IC50 [2] | Best fit inhibition model [3] | also measured
1 | COc1ccc(C2=NN(C3CCCCCC3)C(=O)[C@@H]3CC=CC[C@H]23)cc1OCCCCOc1ccc(-c2nnn[nH]2)cc1 [Compound 1a] | 14 ± 2 µM | mixed-type inhibition model | AML cell differentiation [1]: induce acute myeloid leukemia cell differentiation; α coefficient from mixed-type inhibition model, varied SAM [3]: < 1; α coefficient from mixed-type inhibition model, varied DNA [3]: < 1; Ki (DNMT3A): 9.16 to 18.9 µM; Cytotoxicity [4]: significantly less cytotoxic than FDA-approved inhibitors
2 | COc1ccc(C2=NN(C3CCCCCC3)C(=O)C2(C)C)cc1OCCCCOc1ccc(-c2nnn[nH]2)cc1 [Compound 1b] | – | – | AML cell differentiation [1]: induce acute myeloid leukemia cell differentiation; Ki (DNMT3A): 3.7 to 7.06 µM; Cytotoxicity [4]: significantly less cytotoxic than FDA-approved inhibitors
3 | COc1ccc(C2=NN(C3CCCCCC3)C(=O)[C@@H]3CC=CC[C@H]23)cc1OCCCCOc1ccc(C#N)cc1 [Compound 2] | > 300 µM | – | –
4 | COc1ccc(C2=NN(C3CCCCCC3)C(=O)[C@@H]3CC=CC[C@H]23)cc1OCCCCOc1ccc(C(=O)O)cc1 [Compound 3] | 23 µM | mixed-type inhibition model | α coefficient from mixed-type inhibition model, varied DNA [3]: > 1
5 | O=C1[C@@H]2CC=CC[C@@H]2C(c2cccc(OCCCCOc3ccc(-c4nn[nH]n4)cc3)c2)=NN1C1CCCCCC1 [Compound 4] | 10 µM | mixed-type inhibition model | –
6 | CN1N=C(c2cccc(OCCCCOc3ccc(-c4nn[nH]n4)cc3)c2)[C@H]2CC=CC[C@H]2C1=O [Compound 5] | 41 µM | mixed-type inhibition model | –
7 | O=C1[C@@H]2CC=CC[C@@H]2C(c2cccc(OCCCCOc3ccc(-c4nn[nH]n4)cc3)c2)=NN1Cc1ccccc1 [Compound 6] | 13 µM | – | –
8 | O=C1[C@@H]2CC=CC[C@@H]2C(c2cccc(OCCCCOc3ccc(-c4nn[nH]n4)cc3)c2)=NN1Cc1ccc(F)c(F)c1 [Compound 7] | 18 µM | – | –
9 | O=C1[C@@H]2CC=CC[C@@H]2C(c2cccc(OCCCOc3ccc(-c4nn[nH]n4)cc3)c2)=NN1C1CCCCCC1 [Compound 8] | 11 µM | – | –
10 | O=C1[C@@H]2CC=CC[C@@H]2C(c2cccc(OCCCCCOc3ccc(-c4nn[nH]n4)cc3)c2)=NN1C1CCCCCC1 [Compound 9] | 9 µM | – | –
11 | O=C1[C@@H]2CC=CC[C@@H]2C(c2cccc(OC/C=C\COc3ccc(-c4nn[nH]n4)cc3)c2)=NN1C1CCCCCC1 [Compound 10] | 11 µM | mixed-type inhibition model | α coefficient from mixed-type inhibition model, varied SAM [3]: > 1
12 | O=C1[C@@H]2CC=CC[C@@H]2C(c2cccc(OC/C=C/COc3ccc(-c4nn[nH]n4)cc3)c2)=NN1C1CCCCCC1 [Compound 11] | 13 µM | – | –
13 | O=C(COc1cccc(C2=NN(C3CCCCCC3)C(=O)[C@@H]3CC=CC[C@H]23)c1)Nc1ccc(-c2nn[nH]n2)cc1 [Compound 12] | 38 µM | – | –
14 | O=c1c2ccccc2c(-c2cccc(OCCCCOc3ccc(-c4nn[nH]n4)cc3)c2)nn1C1CCCCCC1 [Compound 13] | 13 µM | – | –
15 | c1ccc(OCCCCOc2ccc(-c3nn[nH]n3)cc2)cc1 [Compound 14] | > 100 µM | – | –
